What all share (type): cell-based
Assay [1] has as its system human embryonic stem cells line H1. The following applies: for type of insulin expressing cells formed: 500 nM, after six days; for GCG (glucagon expressing cells), percentage of the total cell population / INS (single insulin expressing cells), percentage of the total cell population / INS/GCG (insulin and glucagon co-expressing cells), percentage of the total cell population / Synaptophysin, percentage of the total cell population: Stage 4 six days, TPB 500 nM, ILV 500 nM, GÖ 6976 5 μM, FACS. As to the method: Other protein kinase C activators were also tested. These were Indolactam V (ILV) (Axxora; Cat #ALX-420-011-C300) and phorbol-12-myristate-13-acetate (PMA) (Calbiochem; Cat #524400).

Assay [2] concerns human embryonic stem cell line H1. Put plainly: Pancreatic endoderm marker expression after Stage 3 TPB treatment (Example 6). As to the method:
Briefly, cells of the human embryonic stem cell line H1 were cultured on MATRIGEL® (1:30 dilution) coated dishes and RPMI medium supplemented with 0.2% FBS, 100 ng/ml activin A and 20 ng/ml WNT-3a for one day, followed by treatment with RPMI media supplemented with 0.5% FBS and 100 ng/ml activin A, for an additional two days (Stage 1), then • DMEM/F12+2% FBS+50 ng/ml FGF7 for three days (Stage 2), then • T1: DMEM-High glucose+1% B27+0.25 μM Cyclopamine-KAAD+2 μM Retinoic acid (RA)+100 ng/ml of Noggin+FGF10 50 ng/ml for four days (Stage 3, T1) or, • T2: DMEM-High glucose+1% B27+0.25 μM Cyclopamine-KAAD+2 μM Retinoic acid (RA)+100 ng/ml of Noggin+FGF10 50 ng/ml+100 nM TPB for four days (Stage 3, T2), then • DMEM-High glucose+1% B27+100 ng/ml Noggin+1 μM ALK5 inhibitor II for six days (Stage 4)
NKX6.1 was undetectable by immunohistochemistry.

Assay [3] relates to human embryonic stem cells line H1. The experiment in a line: Immunocytochemistry of insulin and glucagon expression after Stage 4 TPB treatment (Example 1). As to the method: Cells of the human embryonic stem cells line H1 were cultured on MATRIGEL® (1:30 dilution) (BD Biosciences; Cat #356231)-coated dishes with RPMI medium (Invitrogen; Cat #: 22400)+0.2% FBS+100 ng/ml activin A (PeproTech; Cat #120-14)+20 ng/ml WNT-3a (R&D Systems; Cat #1324-WN/CF) for one day followed by treatment with RPMI media+0.5% FBS+100 ng/ml activin A for an additional two days (Stage 1), then, • DMEM/F12 (Invitrogen; Cat #11330-032)+2% FBS+50 ng/ml FGF7 (PeproTech; Cat #100-19) for three days (Stage 2), then • DMEM-High glucose (Invitrogen; Cat #10569)+1% B27+50 ng/ml FGF7+0.25 μM Cyclopamine-KAAD (Calbiochem; Cat #239804)+100 ng/ml Noggin (R&D Systems; Cat #3344-NG) for four days (Stage 3), then • DMEM-High glucose+1% B27 (Invitrogen; Cat #0791)+100 ng/ml Noggin+1 μM ALK5 inhibitor II (Axxora; Cat #ALX-270-445)+500 nM TBP ((2S, 5S)-(E, E)-8-(5-(4-(Trifluoromethyl)phenyl)-2,4-pentadiemoylamino) benzolactam) (Calbiochem; Cat #565740) for six days (Stage 4).
As a control, separate populations of cells were treated with DMEM-High glucose+1% B27+100 ng/ml Noggin+1 μM ALK5 inhibitor II for six days (Stage 4, control group). […] Glucagon-expressing cells were also noted in the cultures that received TBP treatment. Most of the glucagon-expressing cells also co-expressed insulin (FIG. 1 panel A and B). […]

Assay [4] has the same test system. Put plainly: FACS after six, nine or twelve days of Stage 4 TPB treatment (Example 3). As to conditions: 500 nM TPB. As to the method:
In another experiment, cells of the human embryonic stem cells line H1 were cultured on […]® (1:30 dilution) coated dishes with RPMI medium+0.2% FBS+100 ng/ml activin A+20 ng/ml WNT-3a for one day followed by treatment with RPMI media+0.5% FBS+100 ng/ml activin A for an additional two days (Stage 1), then • DMEM/F12+2% FBS+50 ng/ml FGF7 for three days (Stage 2), then • DMEM-High glucose+1% B27+50 ng/ml FGF7+0.25 μM Cyclopamine-KAAD+2 μM Retinoic acid (RA)+100 ng/ml of Noggin+20 ng/ml Activin A+a p38 kinase inhibitor (JNJ3026582, at 2.5 μM) for four days (Stage 3), then • Treatment 10: DMEM-High glucose+1% B27+100 ng/ml Noggin+1 μM ALK5 inhibitor II+500 nM TPB for six days (Stage 4, Treatment 10), or • Treatment 11: DMEM-High glucose+1% B27+100 ng/ml Noggin+1 μM ALK5 inhibitor II+500 nM TPB for nine days (Stage 4, Treatment 11), or • Treatment 12: DMEM-High glucose+1% B27+100 ng/ml Noggin+1 μM ALK5 inhibitor II+500 nM TPB for twelve days (Stage 4, Treatment 12)

Assay [5] has the same test system. The experiment in a line: FACS and immunocytochemistry after Stage 4 treatment with different concentrations of TPB (Example 1). The following applies: for INS, percentage of the total cell population / NKX6.1, percentage of the total cell population / NKX6.1/INS, percentage of the total cell population / Synaptophysin, percentage of the total cell population: Stage 4 six days. As to the method: In a separate experiment, cells of the human embryonic stem cells line H1 were cultured on MATRIGEL® (1:30 dilution) coated dishes with RPMI medium+0.2% FBS+100 ng/ml activin A+20 ng/ml WNT-3a for one day followed by treatment with RPMI media+0.5% FBS+100 ng/ml activin A for an additional two days (Stage 1), then • a. DMEM/F12+2% FBS+50 ng/ml FGF7 for three days (Stage 2), then • b. DMEM-High glucose+1% B27+0.25 μM Cyclopamine-KAAD+2 μM Retinoic acid (RA)+100 ng/ml of Noggin for four days (Stage 3), then • c. Treatment 1: DMEM-High glucose+1% B27+100 ng/ml Noggin+1 μM ALK5 inhibitor II+500 nM TBP for six days (Stage 4, Treatment 1), or • d. Treatment 2: DMEM-High glucose+1% B27+100 ng/ml Noggin+1 μM ALK5 inhibitor II+100 nM TBP for six days (Stage 4, Treatment 2), or • e. Treatment 3: DMEM-High glucose+1% B27+100 ng/ml Noggin+1 μM ALK5 inhibitor II+20 nM TBP for six days (Stage 4, Treatment 3), or • f. Treatment 4: DMEM-High glucose+1% B27+100 ng/ml Noggin+1 μM ALK5 inhibitor II for six days (Stage 4, Treatment 4).
Immunocytochemistry analysis was used to assess the effects of the different concentrations of TPB on the formation of the cells of the present invention. […] FACS analysis confirmed that both treatments gave rise to 12% single insulin expressing cells in vitro and […] of that population also expressed NKX6.1 (Table 1—NKX6.1/INS expressing cells were 2.4% of the total population).

Setting [6] is: cultures treated with TPB, immunocytochemistry.
Setting [7] is: 100 nM TPB at Stage 3 for four days (T2) compared to control group (T1).
The mark [8] stands for this setting: Stage 4 for nine days (Treatment 11).
The mark [9] stands for this setting: Stage 4 for six days (Treatment 10).
Where [10] appears, read: Stage 4 for twelve days (Treatment 12).
[11] abbreviates: both 500 nM and 100 nM TPB treatments, FACS.

Several values for one entry are separate records, joined by “and”; a condition that tells them apart may be missing. Identical values can stand only once. Like-named read-outs stand apart in the source and are kept apart here.

We go through three compounds from patent US12441985B2, “Methods for making insulin in vivo” (priority 2009, dated 2025).

For the compound `CC(C)[C@H]1C(=O)N[C@H](CO)Cc2c[nH]c3cccc(c23)N1C` [ILV, Indolactam V], the “type of insulin expressing cells formed” value in assay [1] (immunocytochemistry) is “cells co-expressing insulin and glucagon”. Moreover, in assay [1], the “GCG (glucagon expressing cells), percentage of the total cell population” value was 12% and 12.6%; the “INS (single insulin expressing cells), percentage of the total cell population” value is 3%; the “INS/GCG (insulin and glucagon co-expressing cells), percentage of the total cell population” value came to 12.9%; the “Synaptophysin, percentage of the total cell population” value (“Synaptophysin, percentage” for short) came to 56.8%.

In the case of `CC(C)[C@H]1C(=O)N[C@H](CO)Cc2cc(NC(=O)/C=C/C=C/c3ccc(C(F)(F)F)cc3)ccc2N1C` [TPB, (2S, 5S)-(E, E)-8-(5-(4-(Trifluoromethyl)phenyl)-2,4-pentadiemoylamino) benzolactam], the “type of insulin expressing cells formed” value in assay [1] (immunocytochemistry) is given as “demonstrated the formation of single insulin expressing cells”. Further, in assay [1], the “GCG (glucagon expressing cells), percentage of the total cell population” value was found to be 4.6%; the “INS (single insulin expressing cells), percentage of the total cell population” value is given as 12%; the “INS/GCG (insulin and glucagon co-expressing cells), percentage of the total cell population” value was 7.1%; the “Synaptophysin, percentage” value is reported as 30.6%. In addition, in assay [1] (setting [6]), the “insulin expressing cells that co-expressed NEUROD” value is listed as “majority”, the “insulin expressing cells that co-expressed NKX6.1” value is on record as 20%, the “insulin expressing cells that co-expressed PDX1” value was 20% and the “insulin expressing cells that co-expressed somatostatin or ghrelin (GHRL)” value is listed as “Very few”. In assay [2] (100 nM TPB at Stage 3 for four days (T2)), the NKX6.1 by immunohistochemistry result is recorded as “undetectable”. Also, in assay [2] (setting [7]), the “expression of NKX6.1” value is “significant down-regulation”, the “expression of PDX1” value is “significant down-regulation” and the “expression of PTF1 alpha” value is “significant down-regulation”. The insulin-expressing cells result in assay [3] (500 nM at Stage 4 for six days with Noggin and ALK5 inhibitor II, vs control without it, immunocytochemistry) is given as “increase”. For the same compound, in assay [3] (500 nM at Stage 4 for six days, share of insulin expressing cells), the “insulin expressing cells that are single endocrine hormone expressing cells (no glucagon, somatostatin, ghrelin)” value was “about 60%”. In assay [4] (setting [8]), the “Glucagon, percentage of the total cell population” value stood at 6.6%; the “Insulin, percentage of the total cell population” value stood at 10.0%; the “Insulin/Glucagon, percentage of the total cell population” value (“Insulin/Glucagon, percentage” below) is on record as 7.8%; the “NKX6.1, percentage of the total cell population” value (from here on “NKX6.1, percentage”) was determined as 33.5%. In addition, in assay [4] (setting [8]), the “NKX6.1/Insulin, percentage of the total cell population” value (“NKX6.1/Insulin, percentage” for short) was determined as 1.0% and the “Synaptophysin, percentage” value was found to be 43.5%. Besides, in assay [4] (setting [9]), the “Glucagon, percentage of the total cell population” value came out at 2.0%; the “Insulin, percentage of the total cell population” value is 27.8%; the “Insulin/Glucagon, percentage” value was 16.4%; the “NKX6.1, percentage” value is recorded as 44.2%. Also, in assay [4] (setting [9]), the “NKX6.1/Insulin, percentage” value worked out at 11.0% and the “Synaptophysin, percentage” value was 49.7%. In addition, in assay [4] (setting [10]), the “Glucagon, percentage of the total cell population” value amounted to 4%; the “Insulin, percentage of the total cell population” value is 4.4%; the “Insulin/Glucagon, percentage” value is on record as 6.3%; the “NKX6.1, percentage” value is listed as 32.5%. Also, in assay [4] (setting [10]), the “NKX6.1/Insulin, percentage” value is recorded as 1.0% and the “Synaptophysin, percentage” value is listed as 37.6%. In assay [5] (20 nM TPB, similar to the control group, immunocytochemistry), the “insulin and glucagon co-expression” value was “most cells co-expressed insulin and glucagon”. The “number of single insulin-expressing cells” value in assay [5] (500 nM and 100 nM TPB treatment groups, immunocytochemistry) is “Significant increases”. Also, in assay [5] (TPB 100 nM, FACS), the “INS, percentage of the total cell population” value came to 14.4%; the “NKX6.1, percentage” value is given as 34.8%; the “NKX6.1/INS, percentage of the total cell population” value was 3.1%; the “Synaptophysin, percentage” value is 47.6%. Besides, in assay [5] (TPB 500 nM, FACS), the “INS, percentage of the total cell population” value was 9.4%; the “NKX6.1, percentage” value is 45.7%; the “NKX6.1/INS, percentage of the total cell population” value worked out at 2.4%; the “Synaptophysin, percentage” value turned out to be 38.3%. Moreover, in assay [5] (setting [11]), the “single insulin expressing cells” value is 12% and the “single insulin expressing population that also expressed NKX6.1” value is 15%.

`CCCCCCCCCCCCCC(=O)O[C@@H]1[C@@H](C)[C@@]2(O)[C@@H](C=C(CO)C[C@]3(O)C(=O)C(C)=C[C@@H]23)[C@@H]2C(C)(C)[C@]12OC(C)=O` [PMA, phorbol-12-myristate-13-acetate]: the “type of insulin expressing cells formed” value in assay [1] (immunocytochemistry) was “cells co-expressing insulin and glucagon”.
